From US11602538B2, “Prophylaxis and treatment of cognitive dysfunction and decline” (The Florey Institute of Neuroscience and Mental Health, priority 2017, dated 2023)
Entries after “also recorded” stand apart in the source; their conditions may differ.

Columns and labels:
[1] = tested on: mice receiving a controlled cortical impact traumatic brain injury (TBI); test: Y-maze assessment after TBI; assay type: in vivo, mouse; settings: treated post-TBI, dosing day 21; vs SSV
Experimental: (§1) Surgical procedures and controlled cortical impact (CCI) have been previously described (see Portbury et al., 2015, Metallomics. doi:10.1039/c5mt00234f). Briefly, 3 month-old male C57B16 mice were anesthetized via intraperitoneal injection of 100 mg/kg ketamine and 10 mg/kg xylazine. A 10 mm mid-line incision was made over the skull, and the skin and fascia were reflected to make a 4 mm craniotomy on the central aspect of the right parietal bone using a motorized drill. Upon animal positioning in a stereotaxic frame a CCI injury was subsequently delivered (3 m/s velocity with a 1.5 mm penetration depth).
(§2) Three groups of animals were subjected to TBI as separate experiments. The first group of animals were treated daily with 2% trehalose in SSV solution at 0.1 ml per 10 g body weight via oral gavage for a period of 31 days or SSV solution following the TBI. […] The second groups of animals underwent an identical dosing procedure but were treated with either SSV or maltose as a disaccharide control for trehalose. […] A further group of animals was pre-treated with trehalose prior to TBI. These pre-treated mice received a daily treatment of 2% trehalose in SSV solution at 0.1 ml per 10 g body weight via oral gavage for 7 days prior to TBI. Following TBI, these animals received SSV solution only for the remaining duration of the experiment.
(§3) The Morris Water Maze (MWM) was used to assess the effect of trehalose on spatial learning and memory function following TBI. The pre-training acclimation day of the water maze was performed on day 23 of dosing, followed by six days of place discrimination training of four 90 second trials per day, conducted on days 24-29 of dosing. The probe trial was performed 24 hours after training on dosing day 30 to assess retention of the task. Data was analysed using the Ethovision automated tracking system. Animals were culled on day 31. Both experimental groups adhered to the same time lines of behavioral assessment. The open field assessment was performed on day 19 of dosing and the Y-maze assessment was performed on day 21 of dosing.
(§4) For LA-ICPMS samples, statistical analysis was carried out in Prism 7 (Graph-Pad) software. Analysis was carried out with a two-tailed t test with the level of significance set at p=0.05. For multiple comparisons two-way ANOVA was used to identify significant differences between ipsilateral and contralateral ROI's. For western blot analysis, images were produced using Image Studio Lite (version 4.0.21, LI-COR Biosciences) and subsequent statistical analysis was carried out in Prism 7 (Graph-Pad). All behavioral analysis was performed using Prism 7 (Graph-Pad).

[2] = tested on: mice receiving a controlled cortical impact traumatic brain injury (TBI); test: Morris water maze after controlled cortical impact TBI; assay type: in vivo, mouse; settings: treated post-TBI daily by oral gavage, 2% in SSV, vs SSV controls
Experimental: Trehalose (Sigma) has a generous safety profile in rodents and humans has been posted as “Generally Regarded as Safe” (GRAS) for human consumption by the U.S. Federal Drug Administration (FDA) in October 2000, is used as a food additive, and is also an excipient in many pharmaceuticals, making trehalose a safe, natural and pharmaceutically accepted product. In this study, it was supplied as a 2% w/v in standard suspension vehicle (SSV) solution via oral gavage at a dose of 0.1 ml to 10 g body weight. SSV solution was purchased from Sigma and contains 0.9% sodium chloride (NaCl), 0.5% Sodium carboxymethylcellulose (Na-CMC), 0.5% Benzyl alcohol, 0.4%, Tween 80 (polyoxyethylenesorbitan monooleate).
as §1, §2, §3, §4

OC[C@H]1O[C@H](O[C@H]2[C@H](O)[C@@H](O)C(O)O[C@@H]2CO)[C@H](O)[C@@H](O)[C@@H]1O (mixture of isomers) [maltose]
five-minute frequency of visits into the novel arm, Y-maze [1]: no significant preference for the novel arm; also recorded: no significant improvement | one-minute duration of time in the novel arm, Y-maze [1]: no significant improvement | one-minute frequency of visits into the novel arm, Y-maze [1]: no significant preference for the novel arm; also recorded: no significant improvement | escape latency / acquisition of the task (learning component), Morris water maze ([2]; 0.1 ml per 10 g, training on dosing days 24-29): no such improvement; also recorded: no significant differences | probe day 24-hour task retention (recall component), Morris water maze ([2]; dosing day 30): no such improvement; also recorded: no significant differences
